Inconclusive results and toxic doses are left out. Peptide text beside a SMILES is read from it. * marks the point of attachment. Cbz = O=C(OCc1ccccc1)*

The experiment concerns BDF1 mice, B16 melanoma ip, median survival T/C. In words: NCI In Vivo Anticancer Drug Screen. Data for tumor model B16 Melanoma (intraperitoneal) in B6D2F1 (BDF1) mice. The note with it: endpoint: median survival time, higher = longer survival. A digest of the protocol: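 Compounds were tested in mice carrying transplantable tumors. Survival or tumor size was recorded, and each value is the treated-group measurement (T) divided by that of the vehicle-treated control group (C).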

Setting [1] is: dose: 12.5 mg/kg/injection, schedule: Q01DX009 (ip), vehicle: saline with Tween-80.
Setting [2] is: dose: 25.0 mg/kg/injection, schedule: Q01DX009 (ip), vehicle: saline with Tween-80.
The mark [3] stands for this setting: dose: 50.0 mg/kg/injection, schedule: Q01DX009 (ip), vehicle: saline with Tween-80.
The mark [4] stands for this setting: dose: 100.0 mg/kg/injection, schedule: Q01DX009 (ip), vehicle: saline with Tween-80.
The mark [5] stands for this setting: dose: 25.0 mg/kg/injection, schedule: Q01DX009 (ip), vehicle: saline.
[6] abbreviates: dose: 50.0 mg/kg/injection, schedule: Q01DX009 (ip), vehicle: saline.
[7] abbreviates: dose: 100.0 mg/kg/injection, schedule: Q01DX009 (ip), vehicle: saline.
The mark [8] stands for this setting: dose: 12.5 mg/kg/injection, schedule: Q01DX009 (ip), vehicle: saline.
Setting [9] is: dose: 6.25 mg/kg/injection, schedule: Q01DX009 (ip), vehicle: saline.
The mark [10] stands for this setting: dose: 200.0 mg/kg/injection, schedule: Q01DX009 (ip), vehicle: saline with Tween-80.
Where [11] appears, read: dose: 400.0 mg/kg/injection, schedule: Q01DX009 (ip), vehicle: saline with Tween-80.
Where [12] appears, read: dose: 50.0 mg/kg/injection, schedule: Q01DX009 (ip), vehicle: Klucel (hydroxypropylcellulose) (HPC).
The mark [13] stands for this setting: dose: 200.0 mg/kg/injection, schedule: Q01DX009 (ip), vehicle: Klucel (hydroxypropylcellulose) (HPC).
Setting [14] is: dose: 100.0 mg/kg/injection, schedule: Q04DX003 (ip), vehicle: Klucel (hydroxypropylcellulose) (HPC).

For the compound `CCC/C=C/C=C/C1CC(O)C(O)C(=O)C1CO` (configuration not stated), the T/C by setting is: under setting [1], 102 % of control; under setting [2], 104 % of control; under setting [3], 90 % of control; under setting [4], 95 % of control.
With `CC(=O)N(C)N=Nc1ccc(C)cc1`, the T/C reads like this: (dose: 8.75 mg/kg/injection, schedule: Q01DX009 (ip), vehicle: Klucel (hydroxypropylcellulose) (HPC)) 103 % of control; (dose: 17.5 mg/kg/injection, schedule: Q01DX009 (ip), vehicle: Klucel (hydroxypropylcellulose) (HPC)) 103 % of control.
On to `O=C(COc1ccccc1)CC(O)(C(F)(F)F)C(F)(F)F`, for which the T/C is, setting by setting: (dose: 100.0 mg/kg/injection, schedule: Q04DX003 (ip), vehicle: saline with Tween-80) 100 % of control; (dose: 200.0 mg/kg/injection, schedule: Q04DX003 (ip), vehicle: saline with Tween-80) 92 % of control; (dose: 400.0 mg/kg/injection, schedule: Q04DX003 (ip), vehicle: saline with Tween-80) 97 % of control.
With `CNC(=O)n1c(N)nc(-c2ccccc2)c1-c1ccccc1`, the T/C reads like this: (dose: 6.25 mg/kg/injection, schedule: Q01DX009 (ip), vehicle: saline with Tween-80) 98 % of control; under setting [1], 98 % of control; under setting [2], 106 % of control; under setting [3], 107 % of control.
For `C/C=C(/C)C(=O)O[C@H]1CC[N+]2([O-])CC=C(COC(=O)[C@@](O)([C@H](C)OC)C(C)(C)O)[C@H]12` (some centres not stated), the T/C under setting [5] was 95 % of control; the T/C under setting [6] is 97 % of control; the T/C under setting [7] was 107 % of control; the T/C (dose: 200.0 mg/kg/injection, schedule: Q01DX009 (ip), vehicle: saline) was 100 % of control.
For the compound `COC(=O)C1CCC[N+](C)(C)C1` (configuration not stated), the T/C is 100 % of control under setting [8], 100 % of control under setting [5] and 91 % of control under setting [6].
Take `O=c1[nH]c(=O)n(C2CC(O)C(CO)O2)cc1C(F)(F)F` (configuration not stated): the T/C under setting [8] was 104 % of control; the T/C (dose: 20.0 mg/kg/injection, schedule: Q01DX009 (ip), vehicle: saline) was 105 % of control; the T/C under setting [5] was 102 % of control; the T/C under setting [6] was 112 % of control.
For the compound `COc1cc2cc3c4cc(OC)c(OC)cc4cc[n+]3c(C)c2cc1OC`, the T/C (dose: 400.0 mg/kg/injection, schedule: Q01DX009 (ip), vehicle: saline sonified) was 86 % of control.
For `CNNCc1ccc(/C=N/NC(N)=S)cc1`, the T/C was 105 % of control (dose: 12.5 mg/kg/injection, schedule: Q01DX009 (ip), vehicle: water); 100 % of control (dose: 25.0 mg/kg/injection, schedule: Q01DX009 (ip), vehicle: water); 99 % of control (dose: 50.0 mg/kg/injection, schedule: Q01DX009 (ip), vehicle: water); 97 % of control (dose: 100.0 mg/kg/injection, schedule: Q01DX009 (ip), vehicle: water).
Turning to `Cc1ccc2c(c1)C(=O)N(CC[P+](c1ccccc1)(c1ccccc1)c1ccccc1)C2=O`, the T/C was 93 % of control (dose: 0.78 mg/kg/injection, schedule: Q01DX009 (ip), vehicle: Klucel (hydroxypropylcellulose) (HPC)); 108 % of control (dose: 1.56 mg/kg/injection, schedule: Q01DX009 (ip), vehicle: Klucel (hydroxypropylcellulose) (HPC)); 103 % of control (dose: 3.12 mg/kg/injection, schedule: Q01DX009 (ip), vehicle: Klucel (hydroxypropylcellulose) (HPC)); 103 % of control (dose: 6.25 mg/kg/injection, schedule: Q01DX009 (ip), vehicle: Klucel (hydroxypropylcellulose) (HPC)); 95 % of control (dose: 12.5 mg/kg/injection, schedule: Q01DX009 (ip), vehicle: Klucel (hydroxypropylcellulose) (HPC)).
As to `CC(CN1c2ccccc2Sc2cccnc21)N(C)C` (configuration not stated), the T/C (dose: 3.12 mg/kg/injection, schedule: Q01DX009 (ip), vehicle: saline) was 97 % of control; the T/C under setting [9] was 107 % of control; the T/C under setting [8] is 112 % of control; the T/C under setting [5] is 109 % of control; the T/C under setting [6] is 100 % of control.
For `Cc1c([N+](=O)[O-])cc2c(c1[N+](=O)[O-])C(C)(C)CC2(C)C`, the T/C reads like this: under setting [4], 95 % of control; under setting [10], 86 % of control; under setting [11], 90 % of control.
For `COc1ccc2ccccc2c1C1NC(=O)c2ccccc2N1` (configuration not stated), the T/C by setting is: under setting [12], 106 % of control; (dose: 100.0 mg/kg/injection, schedule: Q01DX009 (ip), vehicle: Klucel (hydroxypropylcellulose) (HPC)) 108 % of control; under setting [13], 109 % of control; (dose: 400.0 mg/kg/injection, schedule: Q01DX009 (ip), vehicle: Klucel (hydroxypropylcellulose) (HPC)) 115 % of control.
For `CCOC(=O)/C(=C\c1ccccc1)P(=O)(OCC)c1ccccc1` (configuration not stated), the T/C (dose: 25.0 mg/kg/injection, schedule: Q04DX003 (ip), vehicle: Klucel (hydroxypropylcellulose) (HPC)) is 93 % of control; the T/C (dose: 50.0 mg/kg/injection, schedule: Q04DX003 (ip), vehicle: Klucel (hydroxypropylcellulose) (HPC)) is 95 % of control; the T/C under setting [14] was 94 % of control.
`[Cl][Pt+2][Cl].[NH-]C1CCC1.[NH2-]`: the T/C was 176 % of control (dose: 1.5 mg/kg/injection, schedule: Q01DX009 (ip), vehicle: saline) and 162 % of control (dose: 3.0 mg/kg/injection, schedule: Q01DX009 (ip), vehicle: saline).
`CCNc1nc(Cl)nc(NC(C)C)n1`: the T/C reads like this: under setting [3], 100 % of control; under setting [4], 102 % of control; under setting [10], 104 % of control.
`O=C1NC(C2CCC3CN32)C(=O)NC1C1CCC2CN21` (configuration not stated): the T/C reads like this: (dose: 0.05 mg/kg/injection, schedule: Q01DX009 (ip), vehicle: saline) 102 % of control; (dose: 0.1 mg/kg/injection, schedule: Q01DX009 (ip), vehicle: saline) 107 % of control; (dose: 0.2 mg/kg/injection, schedule: Q01DX009 (ip), vehicle: saline) 108 % of control; (dose: 0.4 mg/kg/injection, schedule: Q01DX009 (ip), vehicle: saline) 115 % of control.
Turning to `Nc1ncnc2c1ccn2C1OC2COP(=O)(O)OC2C1O` (configuration not stated), the T/C is, setting by setting: (dose: 1.0 mg/kg/injection, schedule: Q01DX009 (ip), vehicle: saline) 116 % of control; (dose: 4.0 mg/kg/injection, schedule: Q01DX009 (ip), vehicle: saline) 111 % of control.
Consider `C[N+](C)(C)c1ncnc2c1ncn2C1CCCO1` (configuration not stated), for which the T/C by setting is: under setting [9], 111 % of control; under setting [8], 105 % of control; under setting [5], 108 % of control; under setting [6], 111 % of control; under setting [7], 117 % of control.
Consider `CCCCCCCCCCCCCCCCCCOCCCCCCCCCCCCCCCCCC`, for which the T/C under setting [4] is 90 % of control and the T/C under setting [11] was 88 % of control.
Consider `OCc1cc2ccccc2[nH]1`, for which the T/C runs as follows: under setting [14], 112 % of control; (dose: 200.0 mg/kg/injection, schedule: Q04DX003 (ip), vehicle: Klucel (hydroxypropylcellulose) (HPC)) 110 % of control; (dose: 400.0 mg/kg/injection, schedule: Q04DX003 (ip), vehicle: Klucel (hydroxypropylcellulose) (HPC)) 106 % of control.
For the compound `COC1CCC2=C(C1)C(=O)CC1c3ccccc3CN21` (configuration not stated), the T/C is 86 % of control under setting [1]; 92 % of control (dose: 12.5 mg/kg/injection, schedule: Q04DX003 (ip), vehicle: saline with Tween-80); 93 % of control under setting [2]; 105 % of control (dose: 25.0 mg/kg/injection, schedule: Q04DX003 (ip), vehicle: saline with Tween-80); 93 % of control under setting [3]; 97 % of control (dose: 50.0 mg/kg/injection, schedule: Q04DX003 (ip), vehicle: saline with Tween-80).
Take `C/C(=N/N=C(N)N)c1ccc(NC(=O)Nc2ccc(/C(C)=N/N=C(N)N)cc2)cc1`: the T/C (dose: 25.0 mg/kg/injection, schedule: Q01DX009 (ip), vehicle: Klucel (hydroxypropylcellulose) (HPC)) is 99 % of control; the T/C under setting [12] was 121 % of control; the T/C under setting [13] is 120 % of control.
As for `Cn1c(N)c(N=Nc2ccccc2Cl)c(=O)n(C)c1=O`, the T/C is 110 % of control under setting [9]; 105 % of control under setting [8]; 104 % of control under setting [5]; 86 % of control under setting [3]; 110 % of control under setting [6].
`O=C(NC(Cc1ccccc1)C(=O)N1CCCC1C(=O)O)OCc1ccccc1` (stereo not drawn) (Cbz-Phe-Pro-OH; configuration not given here): the T/C runs as follows: under setting [3], 99 % of control; under setting [4], 99 % of control; under setting [10], 91 % of control.

Source of the values: PubChem BioAssay AID192 (DTP/NCI, 2004).
